The text below walks through data of the METLIN SMRT retention time set (Domingo-Almenara et al. 2019).

The data set in a line: gradient 5% acetonitrile 3 min, to 50% in 2 min, to 85% in 15 min, held 3 min, 100 µL/min. The following applies: column: Zorbax Extend-C18 2.1 x 50 mm; eluents: water / acetonitrile, 0.1% formic acid. Put shortly: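 Using water and acetonitrile that each contained 0.1% formic acid, mixtures of ~100 pure standards were separated at 100 μL/min on a Zorbax Extend-C18 column (2.1 × 50 mm, 1.8 μm). The HPLC fed a quadrupole time-of-flight mass spectrometer working in positive and negative ionization mode, with dead and dwell volumes of 40 μL and 900 μL. Data were acquired over 3 months. Retention time was read from computationally picked adduct peaks after manual inspection of each.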
On to `COc1ccc(NC(=O)N2CCN(Cc3nc4ccc(Cl)cc4o3)CC2)cc1`, for which the RP-LC retention time is 713 s.

As for `CC(C)(C)NCCC(O)c1cc(C(F)(F)F)nc2c(C(F)(F)F)cccc12` (stereo not given), the RP-LC retention time is 718 s.

`Cc1ccsc1CN1CCC(c2nc(-c3cnccn3)n[nH]2)CC1` yielded an RP-LC retention time of 567 s.

Turning to `Cc1ccc(NC(=O)C2CCCN(c3ncnc4c3nc3n4CCCCC3)C2)cc1` (stereo not given), the RP-LC retention time came to 838 s.

As to `CN1C(=O)CC[C@]2(C(=O)NCc3ccc(F)c(Cl)c3)CCCC[C@@H]12`, the RP-LC retention time stood at 718 s.

The compound `O=C(CCc1ccccc1)Nc1ccc2c(c1)N(C(=O)c1ccco1)CCC2` showed an RP-LC retention time of 871 s.

As to `Cc1ccccc1CC(=O)Nc1cc(-c2nnc(C3CC3)o2)sc1C`, the RP-LC retention time is 724 s.

`O=C(c1ccccc1)C1N=NCC1c1ccc(Cl)cc1` (stereo not given) registered an RP-LC retention time of 1040 s.

With `O=C(NCCC1=CCCCC1)C1CCCN(C(=O)c2cc(-c3ccccn3)n[nH]2)C1` (stereo not given), the RP-LC retention time amounted to 723 s.

`O=C(C1CCC1)N1CCC(c2noc(-c3cnccn3)n2)C1` (stereo not given) registered an RP-LC retention time of 655 s.

`COc1ccc(CCC(=O)NC(C)C(=O)Nc2nc3ccccc3[nH]2)cc1` (stereo not given) showed an RP-LC retention time of 656 s.

Take `COC(=O)CNC(=O)N1c2ccccc2CC1c1nc(C2CC2)no1` (stereo not given): the RP-LC retention time is 815 s.

On to `CCN(c1ccccc1C)S(=O)(=O)c1cc(-c2[nH]ncc2C(=O)N2CCCC2)oc1C`, for which the RP-LC retention time came to 819 s.

The compound `CCOc1ccc(-n2cc(-c3nc(-c4ccccn4)no3)c3ccccc3c2=O)cc1` registered an RP-LC retention time of 599 s.

Compound `CCCc1ccc(S(=O)(=O)N2CCC3(CC2)NCCN=C3NCc2cccc(C)c2)cc1` displayed an RP-LC retention time of 870 s.

Take `Fc1cccc(-c2nnc(-c3ccccc3Cl)o2)c1`: the RP-LC retention time was 1060 s.

Turning to `Cc1ccc(F)cc1NC(=O)Cn1c(=O)nc(N2CCCCC2)c2ccccc21`, the RP-LC retention time is 841 s.

As for `Cc1noc(C2CN(CC(=O)N3CCN(c4ccc(Cl)cc4)CC3)C2)n1`, the RP-LC retention time is 590 s.

`CCCCS(=O)(=O)c1cc2c(cc1NC(=O)c1cccc(C)c1)n(C)c(=O)n2C` yielded an RP-LC retention time of 981 s.

For `Cc1ccn2cc(-c3ccc(NC(=O)Nc4cccc(Cl)c4)cc3)nc2n1`, the RP-LC retention time is 692 s.

Consider `CCOc1ccc(NC(=O)c2cn3c4c(ccc(Cl)c4c2=O)OCC3)cc1`, for which the RP-LC retention time was 657 s.

`COc1ccc(-c2nnc(COc3cccc(NC(=O)C4CCCC4)c3)o2)cc1`: the RP-LC retention time came out at 959 s.

Turning to `CN(C(=O)Cn1cnc2c(-c3ccc(Cl)cc3)csc2c1=O)c1ccccc1`, the RP-LC retention time stood at 1020 s.

`O=C(Nc1cccc(F)c1)N1CCCC1c1nc(-c2cccc(Cl)c2)no1` (stereo not given) had an RP-LC retention time of 1080 s.

On to `CCCCn1c(=O)c2ccccc2n(Cc2nc(-c3cccc(Cl)c3)no2)c1=O`, for which the RP-LC retention time was 1250 s.

`COC(=O)c1c(C)[nH]c(C(=O)N2CCCC(C(=O)NCc3ccc(OC(C)C)cc3)C2)c1C` (stereo not given) had an RP-LC retention time of 812 s.

As to `COc1ccc(NC(=O)N2CCC(n3c(C(F)(F)F)nc4cccnc43)CC2)cc1OC`, the RP-LC retention time is 768 s.

Turning to `CCc1cccc(C)c1Nc1c(-c2ccccc2)nc2nc(C)cc(C)n12`, the RP-LC retention time turned out to be 816 s.

Turning to `COc1ccc(-c2nnc(Cc3nc(-c4cccc(F)c4)no3)o2)cc1OC`, the RP-LC retention time worked out at 911 s.

Take `CCN1c2ccc(C)cc2C(=O)NC12CCN(C(=O)c1cccc(C)c1)CC2`: the RP-LC retention time turned out to be 849 s.

For the compound `CCCN(CCC)S(=O)(=O)c1ccc(Br)c(OC)c1`, the RP-LC retention time turned out to be 1060 s.

`O=C(NC1CC1)c1nc(-c2ccncc2)cs1` came in with an RP-LC retention time of 574 s.

Turning to `O=C(Cn1ncc2c(N3CCN(c4ccccn4)CC3)ncnc21)Nc1ccc(Cl)cc1F`, the RP-LC retention time came to 640 s.

For `O=C(O)CSc1ccc(NC(=O)Nc2ccccc2F)cc1`, the RP-LC retention time was 842 s.

Compound `CCN(CC)CCNC(=O)COc1ccc(Cl)cc1` had an RP-LC retention time of 694 s.

With `CN(C)C1CCCN(Cc2c(F)cccc2Cl)C1=O` (stereo not given), the RP-LC retention time stood at 604 s.

`O=C(CN1C(=O)CCCc2cc(S(=O)(=O)N3CCCCC3)ccc21)N1CCCCC1`: the RP-LC retention time turned out to be 819 s.

Compound `COC(=O)C1=CN(c2cccc(Br)c2)c2cc(F)ccc2S1(=O)=O` registered an RP-LC retention time of 903 s.

As for `Cc1noc(C)c1CCNC(=O)CN1C(=O)C2CCCCN2c2ccc(S(=O)(=O)N(C)C)cc21` (stereo not given), the RP-LC retention time is 796 s.

The compound `Cc1ccc(S(=O)(=O)N2CCc3ccc(NC(=O)Cc4cccs4)cc3C2)cc1` came in with an RP-LC retention time of 942 s.

`O=C(NCCc1cccs1)C1CCN(c2cc(N3CCOCC3)ncn2)CC1`: the RP-LC retention time amounted to 607 s.

As to `COc1ccc(OCC(=O)N2CCC(C(=O)NCCc3csc(-c4cccs4)n3)CC2)cc1`, the RP-LC retention time is 777 s.

In the case of `Cc1c(CCC(=O)NCC2CCCO2)c(=O)n2nc(-c3ccccc3)nc2n1C` (stereo not given), the RP-LC retention time was 668 s.

Take `O=C(NCCc1csc(C2CCCN(C(=O)C3CC3)C2)n1)C1CC1` (stereo not given): the RP-LC retention time is 662 s.

As to `Cc1ccc(-c2noc(Cn3c(=O)n(CC4CCCO4)c(=O)c4ccccc43)n2)cc1` (stereo not given), the RP-LC retention time worked out at 1040 s.

As for `O=c1ccc(-c2ccc(F)cc2)nn1CCc1nc(-c2cccc(Br)c2)no1`, the RP-LC retention time worked out at 1100 s.

Compound `O=C(NCCC1=CCCCC1)C(=O)Nc1ccc(Cl)cn1` displayed an RP-LC retention time of 1050 s.

As for `CC(C)n1cc(S(=O)(=O)NCc2cccs2)c2cccnc21`, the RP-LC retention time amounted to 833 s.

`O=C(O)c1cnc(NCc2cccnc2)nc1-c1ccc(Cl)cc1`: the RP-LC retention time came to 606 s.

`O=C(CN1C(=O)C2CCCCN2c2ccc(C(=O)N3CCCCC3)cc21)NCc1ccco1` (stereo not given) returned an RP-LC retention time of 784 s.

`COc1ccccc1NS(=O)(=O)c1cc2n(c1)CCN(CC(C)C)C2=O` came in with an RP-LC retention time of 798 s.

`CCN1C(=O)c2cccnc2Sc2cc(NC(=O)c3ccccc3Cl)ccc21` showed an RP-LC retention time of 828 s.

`Cc1cccc(-n2nnc(C(=O)O)c2-c2cccnc2)c1` had an RP-LC retention time of 650 s.

In turn, `Cc1ccc(-c2nc3ncccn3c2Nc2ccc3c(c2)OCCO3)cc1` had an RP-LC retention time of 684 s.

`CCOCCCNC(=O)C1CCN(C2=NS(=O)(=O)C(c3ccc(C(C)C)cc3)=C2C)CC1`: the RP-LC retention time was 858 s.

For the compound `CN1C(=O)c2cc(C(=O)N3CCCCCC3)nn2CC1(C)C(=O)NC1CCCC1` (stereo not given), the RP-LC retention time was determined as 714 s.

Take `Cc1ccc2c(Nc3ccc(S(N)(=O)=O)cc3)c(C(=O)N3CCC(C)CC3)cnc2n1`: the RP-LC retention time worked out at 582 s.

`COCCCNC(=O)CN1c2ccc(F)cc2-c2ccccc2S1(=O)=O` displayed an RP-LC retention time of 756 s.

`COc1ccc(-c2n[nH]c3c2C(c2cccc(O)c2)NC3=O)cc1` (stereo not given) displayed an RP-LC retention time of 654 s.

Consider `COCC(=O)N(CC(=O)N1CCc2sccc2C1COc1ccc(Cl)cc1)C(C)C` (stereo not given), for which the RP-LC retention time was found to be 909 s.

In turn, `CC(Cc1ccco1)NC(=O)Cn1c2ccccc2c2cnn(C)c(=O)c21` (stereo not given) gave an RP-LC retention time of 790 s.

Consider `CCC(C)NC(=O)Cn1ncc2c(c1=O)N(C)C(=O)CS2` (stereo not given), for which the RP-LC retention time is 606 s.

`Cn1c(=O)c(N2CCC(NC(=O)Nc3ccccc3C(F)(F)F)CC2)nc2ccccc21` yielded an RP-LC retention time of 953 s.

Compound `CN1CCN(CCNC(=O)C2CCN(Cc3cn(C)c4ccc(Cl)cc34)CC2)CC1` returned an RP-LC retention time of 570 s.

The compound `CC1(C)CC(O)CC(C)(C)N1CC(O)COCCOc1ccc(F)cc1` (stereo not given) came in with an RP-LC retention time of 565 s.

In the case of `O=C(NCc1ccco1)C1CCCN(c2nccnc2Sc2ccccc2)C1` (stereo not given), the RP-LC retention time was 880 s.

In the case of `Cc1nnc(-c2cc(C)n(CC(=O)Nc3ccc(Cl)cc3C)c2C)o1`, the RP-LC retention time is 810 s.

Regarding `Cc1cc(C)c(S(=O)(=O)N2CCc3c(c(-c4nnc(-c5ccccc5)o4)nn3C)C2)cc1C`, the RP-LC retention time amounted to 1070 s.

`COCCCNC(=O)CN1C(=O)CC(c2ccc(Br)s2)=Nc2ccccc21` returned an RP-LC retention time of 849 s.

For the compound `Cc1ccc(N2CC(c3noc(-c4cccs4)n3)CC2=O)cc1` (stereo not given), the RP-LC retention time was determined as 946 s.

For the compound `Cc1cc(Cl)ccc1NC(=O)Cn1cccc1-c1nnc(C2CC2)o1`, the RP-LC retention time was 904 s.

In turn, `CCN1C(=O)c2cc(S(=O)(=O)Nc3ccc(C)cc3)ccc2Oc2cccnc21` registered an RP-LC retention time of 970 s.

`O=C(NCCn1cnc2ccccc2c1=O)C1CC(=O)N(c2n[nH]c3ccccc23)C1` (stereo not given) came in with an RP-LC retention time of 632 s.

`O=C(NC(C(=O)N1CCCc2ccccc21)c1ccccc1)C1CC(=O)N(c2ccccc2)C1` (stereo not given): the RP-LC retention time came out at 951 s.

On to `COc1ccc(C(=O)Oc2ccc(/C=C/c3ccncc3)cc2OC)cc1OC`, for which the RP-LC retention time is 606 s.

Take `Cc1ccc(CNC(=O)N2CCC(OC3CCN(S(C)(=O)=O)CC3)CC2)cc1`: the RP-LC retention time turned out to be 760 s.

With `O=c1c(=O)n(-c2ccccc2)ccn1Cc1nc(-c2ccc(F)c(Cl)c2)no1`, the RP-LC retention time is 894 s.

`COc1cccc(-n2c(=O)c(C(=O)Nc3cc(F)cc(F)c3)c(O)c3cccnc32)c1` had an RP-LC retention time of 1210 s.

`Cc1ccc(NC(=O)CSc2cc(N3CCC(C)CC3)ncn2)c(C)c1`: the RP-LC retention time was determined as 1100 s.

`Cc1ccc(C)c(NC(=O)NC2CCN(c3ccc(F)cc3)C2=O)c1` (stereo not given) gave an RP-LC retention time of 842 s.
